Experiments:
muscarinic M1 receptors = target: T1, muscarinic M1 receptors (Rattus norvegicus, UniProt P08482); assay: Inhibition of binding to muscarinic M1 receptors ([3H]-telenzepine, cerebral cortex membrane)
T1 construct: a mixture of a membrane specimen from the cerebral cortex; from tissue; host or cells: rat cerebral cortex membranes (SD rat)
T1 sequence (P08482 1-460): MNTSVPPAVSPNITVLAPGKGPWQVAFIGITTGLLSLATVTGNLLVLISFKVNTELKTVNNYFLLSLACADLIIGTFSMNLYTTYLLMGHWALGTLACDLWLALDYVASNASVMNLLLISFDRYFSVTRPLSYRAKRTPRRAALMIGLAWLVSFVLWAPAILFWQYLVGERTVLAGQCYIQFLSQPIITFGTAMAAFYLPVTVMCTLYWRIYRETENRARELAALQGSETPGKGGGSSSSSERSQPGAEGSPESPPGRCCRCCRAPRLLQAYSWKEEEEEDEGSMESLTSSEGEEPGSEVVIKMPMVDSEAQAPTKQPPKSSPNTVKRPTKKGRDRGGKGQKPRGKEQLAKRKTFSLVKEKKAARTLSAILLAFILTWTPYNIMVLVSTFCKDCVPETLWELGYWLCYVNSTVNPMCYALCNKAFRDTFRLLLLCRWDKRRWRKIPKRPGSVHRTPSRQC
Procedure: In these tests, their inhibitory and antagonistic effects were expressed in terms of the dissociation constant (Ki) of each test compound which was calculated from its concentration (IC50 ) causing a 50% inhibition of the binding of a labeled ligand to muscarinic receptors. As the labeled ligand, [^3 H]-telenzepine was used for the muscarinic M1 receptors and [^3 H]-N-methylscopolamine for the muscarinic M2 and M3 receptors.
A male SD strain rat (purchased from Nippon Charles River Co., Ltd.), weighing about 250-350 g, was sacrificed, and the cerebral cortex, heart and lacrimal glands were excised. Using a Polytron (setting 5), each organ was homogenized in 5 volumes of an ice-cold buffer solution (pH 7.4) containing 50 mM tris-HCl, 5 mM magnesium chloride, 1 mM trisodium ethylenediaminetetraacetate and 20% sucrose. The resulting homogenate was centrifuged at 3,000×g at 4° C. for 15 minutes, and the supernatant was filtered through gauze and ultracentrifuged at 100,000×g at 4° C. for 45 minutes. The resulting precipitate was suspended in an ice-cold buffer solution (pH 7.4) containing 50 mM tris-HCl and 5 mM magnesium chloride (hereinafter referred briefly to as "tris buffer") and ultracentrifuged at 100,000×g at 4° C. for 45 minutes. The resulting precipitate was suspended in tris buffer so as to give a concentration of 50 mg/ml and stored at -80° C. till use. The membrane specimens so prepared were thawed prior to use and submitted to tests for the inhibition of binding to muscarinic receptors.
2) Tests for the inhibition of binding to the muscarinic M1 receptors
These tests were performed according to a modification of the method of Hargreaves et al. [Br. J. Pharmacol., Vol. 107, pp. 494-501 (1992)]. Specifically, a mixture of a membrane specimen from the cerebral cortex, 1 nM [^3 H]-telenzepine (85 Ci/mmol; manufactured by New England Nuclear) and a test compound in 0.5 ml of tris buffer was incubated at room temperature (about 20°-25° C.) for 120 minutes. After the addition of 0.5 ml of ice-cold tris buffer, the mixture was filtered by suction through a glass filter (Packard Unifilter Plate GF/C). Then, the filter was washed four times with 1 ml portions of ice-cold tris buffer and dried at 50° C. for an hour. After the addition of a scintillator (Packard Microscinti 0), the radioactivity of [^3 H]-telenzepine adsorbed to the filter was measured with a microplate scintillation counter (Packard Topcount). The nonspecific binding of [^3 H]-telenzepine to receptors was determined by the addition of […] pirenzepine. According to the method of Cheng and Prusoff [Biochem. Pharmacol., Vol. 22, pp. 3099-3108 (1973)], the affinity of the test compound (i.e., a compound in accordance with the present invention) for the muscarinic M1 receptors was determined in terms of its dissociation constant (Ki) calculated from the concentration (IC50) of the test compound which was required to cause a 50% inhibition of the binding of [^3 H]-telenzepine used as the labeled ligand.

[1] = target: T2, airway M3 receptors (trachea) (Rattus norvegicus, UniProt P08483); assay: Antagonism against airway M3 receptors in an isolated rat trachea
T2 construct: the trachea was excised; from tissue; host or cells: isolated rat trachea
Procedure: 3) Tests for antagonism against the airway M3 receptors in an isolated rat trachea
These tests were performed according to an ordinary method. A male SD strain rat (weighing 300-500 g) was killed by exsanguination, and the trachea was excised. Annular segments (2 mm wide) were cut out from the trachea and cut open at the anterior cartilage part to make transversely sectioned trachea preparations. A preparation was suspended in a Magnus tube filled with 5 ml of Krebs-Henseleit nutrient solution (gassed with 95% O2 -5% CO2 and kept at 32° C.) with an initial tension of 1.0 g and a resting tension of 0.6 g. The tension of the preparation was recorded isometrically. After being equilibrated for an hour, the preparation was made to contract twice by treatment with 10^-4 M carbachol, and the second contraction induced by carbachol was used as the reference contraction. After the preparation was washed with fresh solution to make a return to the base line, a test compound was administered thereto (or no treatment was made). Ten minutes later, carbachol (10^-8 to 10^-3 M) was cumulatively administered in three-fold increasing doses to obtain a dose-response curve. The dose-response curve was constructed by expressing responses as percentages based on the reference contraction of the preparation. The antagonistic potency (KB value) of the test compound (i.e., a compound in accordance with the present invention) was determined from the degree of shift of the dose-response curve obtained by treatment with the test compound.

[2] = target: T3, intestinal M3 receptors (ileum) (Rattus norvegicus, UniProt P08483); assay: Antagonism against intestinal M3 receptors in an isolated rat ileum; settings: in vitro, agonist carbachol
T3 construct: the ileum was excised; from tissue; host or cells: isolated rat ileum
Procedure: 4) Tests for antagonism against the intestinal M3 receptors in an isolated rat ileum
A male SD strain rat (weighing 300-500 g) was killed by exsanguination, and the ileum was excised. This ileum was cut to make ileum preparations having a length of 2 cm. A preparation was suspended in a Magnus tube filled with 20 ml of Krebs-Henseleit nutrient solution (gassed with 95% O2 -5% CO2 and kept at 32° C.) under a load of 0.5 g. The tension of the preparation was recorded isotonically. After being equilibrated for an hour, the preparation was made to contract twice by treatment with 10^-4 M carbachol, and the second contraction induced by carbachol was used as the reference contraction. After the preparation was washed with fresh solution to make a return to the base line, a test compound was administered thereto (or no treatment was made). Ten minutes later, carbachol (10^-8 to 10^-3 M) was cumulatively administered from the lowermost concentration in three-fold increasing doses to obtain a dose-response curve. The dose-response curve was constructed by expressing responses as percentages based on the reference contraction of the preparation. The antagonistic potency (KB value) of the test compound was determined from the degree of shift of the dose-response curve obtained by treatment with the test compound.

T2 sequence (P08483 whole entry): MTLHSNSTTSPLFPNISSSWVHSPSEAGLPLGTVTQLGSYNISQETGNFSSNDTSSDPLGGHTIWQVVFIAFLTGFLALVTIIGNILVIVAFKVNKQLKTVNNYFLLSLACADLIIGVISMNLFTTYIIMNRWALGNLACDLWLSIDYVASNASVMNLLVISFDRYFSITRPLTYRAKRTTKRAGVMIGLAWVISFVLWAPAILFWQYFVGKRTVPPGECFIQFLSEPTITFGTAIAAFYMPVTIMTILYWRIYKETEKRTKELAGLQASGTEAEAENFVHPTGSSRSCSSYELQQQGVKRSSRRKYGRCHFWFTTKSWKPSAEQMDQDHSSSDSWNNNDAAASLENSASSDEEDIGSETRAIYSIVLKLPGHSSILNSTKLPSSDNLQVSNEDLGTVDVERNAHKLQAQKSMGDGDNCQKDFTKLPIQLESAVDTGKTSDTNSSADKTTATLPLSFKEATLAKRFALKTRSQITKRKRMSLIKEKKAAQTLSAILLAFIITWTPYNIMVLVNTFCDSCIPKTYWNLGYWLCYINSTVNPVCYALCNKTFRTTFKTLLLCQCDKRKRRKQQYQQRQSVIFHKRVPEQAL
T3 sequence (P08483 whole entry): as above

## CC(C)=CCCN1CCC(NC(=O)C(O)(c2ccccc2)C2CCC2)CC1 (centres unmarked) [Example 1, N-[1-(4-methyl-3-pentenyl)-piperidin-4-yl]-2-cyclobutyl-2-hydroxy-2-phenylacetamide]
Muscarinic M1 receptors
  Ki: 45 nM
[1]; in vitro, isolated rat trachea, agonist carbachol
  Kb: 19 nM
[1]; ratio of KB, right atrium M2 over trachea M3 (* Trachea M3)
  M2/M3 *: 79
[1]; ratio of KB, vas deferens M1 over trachea M3 (* Trachea M3)
  M1/M3 *: 6.3
[2]
  Kb: 24 nM

Source: patent publication US5750540A, “1,4-di-substituted piperidine derivatives” (Banyu Pharmaceutical Co., Ltd., priority 1995, dated 1998)
